Measured values reported in patent US20140357512A1, “HISTONE DEACETYLASE (HDAC) BIOMARKERS IN MULTIPLE MYELOMA” (priority 2013, published 2014).

System: human myeloma cell line MM.1S
Experiment: SILAC acetylated-lysine peptide profiling, HDAC inhibitor vs DMSO (light/heavy ratio)
Format: cell-based
Excerpt: An embodiment of the invention comprises utilizing the SILAC method in order to quantitate changes in protein expression between two or more populations of cells. The SILAC method is a technique based on mass spectrometry that detects differences in protein abundance among samples using non-radioactive isotopic labeling. The SILAC method is known in the art, and described in detail in Ong et al., “Stable Isotope Labeling by Amino Acids in Cell Culture, SILAC, as a Simple and Accurate Approach to Expression Proteomics”, Molecular & Cellular Proteomics, vol. 1, pp. 376-386 (2002), which is incorporated herein by reference in its entirety.
Briefly, the SILAC method involves growing two populations of cells in cell culture. The first population of cells is grown in growth media containing normal amino acids (“normal media”). The second population of cells is grown in media lacking a standard essential amino acid (such as lysine), but is then supplemented with a non-radioactive, isotopically labeled form of that essential amino acid (such as lysine labeled with ^13C atoms, rather than normal ^12C atoms), which is called “heavy media”. When the two populations of cells are each growing in the medium, they incorporate the amino acids into all of their proteins. The growth of cells maintained in the heavy media is no different from that in normal media. All peptides containing the heavy amino acids are heavier than their normal counterparts. The cells from each of the two populations of cells are lysed. The lysates from each of the two cell populations are then combined. The combined cell lysates are then analyzed by mass spectrometry. Pairs of chemically identical peptides of different stable isotope composition can be differentiated in a mass spectrometer due to their difference in mass. The ratio of peak intensities in the mass spectrum for such peptide pairs reflects the abundance ratio for the two proteins.
This example describes SILAC studies that were performed to compare the effects of three different HDAC inhibitors (Compound A, Compound B, and tubastatin A) to a control on a human multiple myeloma cell line. The HDAC inhibitors were also compared amongst themselves to determine differences in their effects.
A human myeloma cell line MM.1S was grown using either ^12C (light) or ^13C (heavy) lysine containing culture medium. The “heavy” cells were treated with DMSO as the control, and the “light” cells were treated with a single HDAC inhibitor at 37° C. for 6 hours. The heavy and light cells were lysed, and the lysates were mixed in 1:1 ratio and digested with the protease trypsin. The acetylated lysine containing peptides (due to the action of the HDAC inhibitor) in the digested peptide pool were captured by a non-specific anti-acetylated lysine antibody cocktail (the antibodies identify both light and heavy acetylated peptides), and subjected to mass spectrometry analysis in order to identify thousands of individual peptides.
Thousands of peptides were identified in pairs (^12C and ^13C) due to their known mass differences. The amino acid sequence and quantitative ratio (Light/Heavy) of a given peptide in two differentially treated cell lysates were then determined and annotated with their possible protein (gene) sources.
As stated above, three HDAC inhibitors (Compound A, Compound B, and Tubastatin A) were used. Thus, the SILAC method was performed three times, with a different HDAC inhibitor compared to a control each time. Accordingly, there are three pairs of quantitative data in the table below, i.e., Compound A:DMSO, Compound B:DMSO, and Tubastatin A:DMSO. A cut-off of 1.30 fold of change (increase or decrease) was then used to determine “changed” or “+” in the table, and any peptides with a fold of change less than 1.3 fold were determined to be “unchanged” or “0” in the table. Those peptides that were not identified were marked as “NA” in the table. […]

What does the source list for `O=C(CCCCCCNC(=O)c1cnc(N(c2ccccc2)c2ccccc2)nc1)NO` [Compound A, 2-(diphenylamino)-N-(7-(hydroxyamino)-7-oxoheptyl)pyrimidine-5-carboxamide]?
light to heavy ratio (L/H ratio) of acetylated peptide MTDK(ac)CFR (SEQ ID NO: 573) (Mitochondrial import inner membrane translocase subunit Tim13 [45], gene TIMM13, inhibitor:DMSO): 0.42 log 2; light to heavy ratio (L/H ratio), log 2 scale, acetylated peptide YVK(ac)ALFR (SEQ ID NO: 771) (Mitochondrial import receptor subunit TOM70 [188], gene TOMM70A, drug:DMSO): 0.99; light to heavy ratio (L/H ratio) of acetylated peptide (ac)AEPVSPLK(ac)HFVLAK (SEQ ID NO: 508) (Mitochondrial transmembrane GTPase FZO-2 [37], gene MFN1, inhibitor:DMSO): −0.63 log 2; light to heavy ratio (L/H ratio) of acetylated peptide LSLLSK(ac)FR (SEQ ID NO: 564) (Mitochondrial trifunctional protein beta subunit (Fragment) [100], gene HADHB, inhibitor:DMSO): 0.41 log 2; light to heavy ratio (L/H ratio) of acetylated peptide EIFQNEK(ac)R (SEQ ID NO: 288) (NAD(P) transhydrogenase mitochondrial [70], NNT, drug:DMSO): 0.64 log 2; light to heavy ratio (L/H ratio) of acetylated peptide AISPDK(ac)DNFYFDVK (SEQ ID NO: 284) (NAD(P) transhydrogenase mitochondrial [403], NNT, drug:DMSO): 0.61 log 2; L/H ratio of acetylated peptide (NK(ac)WFFQK (SEQ ID NO: 498), 60S ribosomal protein L27 [128], RPL27): −0.86 log 2; L/H ratio of acetylated peptide (NK(ac)YGDAFIR (SEQ ID NO: 496), U6 snRNA-associated Sm-like protein LSm6 [59], LSM6): −0.93 log 2; L/H ratio of acetylated peptide ADKDYHFK(ac)[…] (SEQ ID NO: 61) (NPM1 [32], log 2 scale, drug vs DMSO): 0.00; L/H ratio of acetylated peptide FINYVK(ac)NCFR (SEQ ID NO: 62) (NPM1 [244], log 2 scale, drug vs DMSO): 0.00; L/H ratio of acetylated peptide GVTQFGNK(ac)[…] (SEQ ID NO: 18) (NUDT21 [23], log 2 scale, drug vs DMSO): 1.00; light to heavy ratio (L/H ratio) of acetylated peptide FCLSK(ac)PGVYK (SEQ ID NO: 345) (Nodal modulator 1 [630], NOMO3, NOMO1, drug:DMSO): 0.00 log 2; light to heavy ratio (L/H ratio) of acetylated peptide […](ac)R (SEQ ID NO: 532) (Nucleosome assembly protein 1-like 1 [116], gene NAP1L1, inhibitor:DMSO): −0.41 log 2; L/H ratio of acetylated peptide SGVGNVFIK(ac)NLDK (SEQ ID NO: 63) (PABPC4 [104], log 2 scale, drug vs DMSO): 0.00; L/H ratio of acetylated peptide […](ac)IFR (SEQ ID NO: 66) (PDIA3 [104], log 2 scale, drug vs DMSO): 0.00; L/H ratio of acetylated peptide PSHLTNK(ac)FEDK (SEQ ID NO: 65) (PDIA3 [214], log 2 scale, drug vs DMSO): 0.00; L/H ratio of acetylated peptide GEK(ac)FVMQEEFSR (SEQ ID NO: 64) (PDIA3 [335], log 2 scale, drug vs DMSO): 0.00; L/H ratio of acetylated peptide SLLGK(ac)DVLFLK (SEQ ID NO: 67) (PGK1 [91], log 2 scale, drug vs DMSO): 0.00; light to heavy ratio (L/H ratio) of acetylated peptide, log 2 scale (PLISVYSEK(ac)GESSGK (SEQ ID NO: 247), 60S ribosomal protein L4 [14], RPL4): −0.54; L/H ratio of acetylated peptide SIYGEK(ac)FEDENFILK (SEQ ID NO: 68) (PPIA [82], log 2 scale, drug vs DMSO): 0.00; L/H ratio of acetylated peptide VIFGLFGK(ac)TVPK (SEQ ID NO: 70) (PPIB [67], log 2 scale, drug vs DMSO): 0.00; L/H ratio of acetylated peptide TVPK(ac)[…] (SEQ ID NO: 69) (PPIB [71], log 2 scale, drug vs DMSO): 0.00; L/H ratio of acetylated peptide VIK(ac)[…] (SEQ ID NO: 71) (PPIB [98], log 2 scale, drug vs DMSO): 0.00; L/H ratio of acetylated peptide IYGFYDECK(ac)R (SEQ ID NO: 72) (PPP1CC [141], log 2 scale, drug vs DMSO): 0.00; light to heavy ratio (L/H ratio) of acetylated peptide TAWLDGK(ac)HVVFGK (SEQ ID NO: 592) (Peptidyl-prolyl cis-trans isomerase B [165], gene PPIB, inhibitor:DMSO): 0.44 log 2; light to heavy ratio (L/H ratio) of acetylated peptide FPDENFK(ac)LK (SEQ ID NO: 347) (Peptidyl-prolyl cis-trans isomerase C [123], PPIC, drug:DMSO): 0.00 log 2; light to heavy ratio (L/H ratio) of acetylated peptide HVVFGK(ac)VK (SEQ ID NO: 576) (Peptidylprolyl isomerase A (Cyclophilin A) (PPIA) pseudogene [141], gene PPIAP26, inhibitor:DMSO): 0.42 log 2; light to heavy ratio (L/H ratio) of acetylated peptide LAK(ac)YFFNK (SEQ ID NO: 604) (Periodic tryptophan protein 2 homolog [279], gene PWP2, inhibitor:DMSO): 0.46 log 2; light to heavy ratio (L/H ratio) of acetylated peptide AAWEHMK(ac)K (SEQ ID NO: 551) (Peroxisomal multifunctional enzyme type 2 [139], gene HSD17B4, inhibitor:DMSO): 0.39 log 2; light to heavy ratio (L/H ratio) of acetylated peptide FAK(ac)[…] (SEQ ID NO: 557) (Peroxisomal multifunctional enzyme type 2 [565], gene HSD17B4, inhibitor:DMSO): 0.40 log 2; light to heavy ratio (L/H ratio) of acetylated peptide […](ac)EALKK (SEQ ID NO: 619) (Poly [ADP-ribose] polymerase 1 [192], gene PARP1, inhibitor:DMSO): 0.48 log 2; light to heavy ratio (L/H ratio) of acetylated peptide […](ac)DELKK (SEQ ID NO: 346) (Poly [ADP-ribose] polymerase 1 [249], PARP1, drug:DMSO): 0.00 log 2; light to heavy ratio (L/H ratio) of acetylated peptide […](ac)NVLK (SEQ ID NO: 527) (Pre-mRNA-processing-splicing factor 8 [2108], gene PRPF8, inhibitor:DMSO): −0.44 log 2; light to heavy ratio (L/H ratio) of acetylated peptide ALK(ac)YLVMDEADR (SEQ ID NO: 513) (Probable ATP-dependent RNA helicase DDX47 [169], gene DDX47, inhibitor:DMSO): −0.58 log 2; light to heavy ratio (L/H ratio) of acetylated peptide (ac)AAK(ac)VFESIGK (SEQ ID NO: 277) (Prohibitin [4], PHB, drug:DMSO): 0.54 log 2
